From ChEMBL document CHEMBL1124752, “Cyclobut-A and cyclobut-G: broad-spectrum antiviral agents with potential utility for the therapy of AIDS” (J Med Chem, 1990)

How the values were obtained:
Format in all cases: functional
[1] = system: Human immunodeficiency virus 1; test: Tested for the determination of percentage toxicity at 1 uM concentrations against HIV-1 in ATH8 Cells
[2] = system: Human immunodeficiency virus 1; test: Tested for the determination of percentage protection at 20 uM concentrations against HIV-1 in ATH8 Cells
[3] = system: Human immunodeficiency virus 1; test: Tested for the determination of percentage protection at 100 uM concentrations against HIV-1 in ATH8 Cells
[4] = system: Human immunodeficiency virus 1; test: Tested for the determination of percentage toxicity at 100 uM concentrations against HIV-1 in ATH8 Cells
[5] = system: Human immunodeficiency virus 1; test: Tested for the determination of percentage toxicity at 20 uM concentrations against HIV-1 in ATH8 Cells
[6] = system: Human immunodeficiency virus 1; test: Tested for the determination of percentage protection at 5 uM concentrations against HIV-1 in ATH8 Cells
[7] = system: Human immunodeficiency virus 1; test: Tested for the determination of percentage toxicity at 5 uM concentrations against HIV-1 in ATH8 Cells
[8] = system: Human immunodeficiency virus 1; test: Tested for the determination of percentage protection at 1 uM concentrations against HIV-1 in ATH8 Cells

Compound: Cc1cn([C@H]2C[C@H](N=[N+]=[N-])[C@@H](CO)O2)c(=O)[nH]c1=O [ZIDOVUDINE]
- Cytotoxicity [1]: 3%
- Protection [2]: 65%
- Protection [3]: 47%
- Cytotoxicity [4]: 54%
- Cytotoxicity [5]: 54%
- Protection [6]: 96%
- Cytotoxicity [7]: 30%
- Protection [8]: 65%
